Assays:
HIV-1III8 = format: cell-based
[1] = system: hepatitis B virus (HBV) ayw strain; assay: HBV experimental assay system, HepG2-2.2.15 cells, TaqMan PCR of secreted HBV DNA; format: cell-based; conditions: 10 micrograms per ml, six days, combination 0.95 mole peptide 1 and 1.05 mole peptide 2
[2] = system: Primary Human endothelial cells (HUVEC); assay: Endothelial cell migration assay; format: cell-based; conditions: 10 micrograms per ml, 22 hours
murine spleen cells = assay: Th1/Th2 cytokine profiling assay; format: cell-based, Balb/c mice; conditions: 10 micrograms per ml, Ovalbumin restimulation, 72 hours; for production of IL-2 in murine spleen cells (induced / increased by): combination 0.95 mole peptide 1 and 1.05 mole peptide 2
HCMV strain AD169 = assay: HCMV plaque formation assay in MRC-5 cells; conditions: for inhibition of HCMV plaque formation as compared to the virus control experiment: 10 micrograms per ml, 7-10 days
HUVEC = assay: Endothelial tube formation assay; format: cell-based, human; conditions: 10 micrograms per ml; 20 hours; combination peptide 1: peptide 2 1.10 mole: 0.90 mole
Description: Positive control was vehicle only. […] Raw data were expressed as average tubule […] ±standard deviation.

Human A549 cells = assay: Apoptosis prevention assay (C2 ceramide, Annexin-5); format: cell-based; conditions: 10 micrograms per ml, 30 min pretreatment, combination 0.95 mole peptide 1 and 1.05 mole peptide 2
Streptococcus pneumoniae = conditions: 10 micrograms per ml; read visually

| Compound | antiviral activity of positive control compounds (HIV-1) (HIV-1III8) | inhibition of HBV replication as compared to the virus control infection [1] [%] | inhibition of the migration of human endothelial cells ([2]; combination peptide 1: peptide 2 1.10 mole: 0.90 mole) [%] | change of the production of IL-4 in murine spleen cells (murine spleen cells) | change of the production of IL-5 in murine spleen cells (murine spleen cells) | change of the production of TNF-alpha in murine spleen cells (murine spleen cells) | production of IFN-γ in murine spleen cells (decreased by) (murine spleen cells) | production of IL-2 in murine spleen cells (induced / increased by) (murine spleen cells) [%] | inhibition of HCMV plaque formation as compared to the virus control experiment (HCMV strain AD169) | inhibition of the tube formation of human endothelial cells (HUVEC) [%] | reduction of the ceramide-induced apoptosis on human lung cells (Human A549 cells) | inhibition of the growth of Streptococcus pneumoniae (Streptococcus pneumoniae) | antiviral activity of positive control compound (HCMV) (HCMV strain AD169; positive control) | increase of the migration of endothelial cells [2] [%] |
| --- | --- | --- | --- | --- | --- | --- | --- | --- | --- | --- | --- | --- | --- | --- |
| CC(C)(C)NC(=O)[C@@H]1CN(Cc2cccnc2)CCN1C[C@@H](O)C[C@@H](Cc1ccccc1)C(=O)N[C@H]1c2ccccc2C[C@H]1O [indinavir] | expected levels of antiviral activity | – | – | – | – | – | – | – | – | – | – | – | – | – |
| Cc1cn([C@H]2C[C@H](N=[N+]=[N-])[C@@H](CO)O2)c(=O)[nH]c1=O [AZT] | expected levels of antiviral activity | – | – | – | – | – | – | – | – | – | – | – | – | – |
| Ala-lle-Phe-Ile-Phe-Ile-Arg-Trp-Leu-Leu-Lys-Leu-Gly-His-His-Gly-Arg-Ala-Pro-Pro-OH [Peptide 1] | – | 44.6 | 19 | did not significantly change | did not significantly change | did not significantly change | did not significantly change | 156 | did not inhibit | 23 | 28.2% | no inhibitory effects | – | – |
| Nc1nc(O)c2ncn(COC(CO)CO)c2n1 [Ganciclovir] | – | – | – | – | – | – | – | – | – | – | – | – | expected levels of antiviral activity | – |
| C[C@@H](O)[C@@H]1NC(=O)[C@H](CCCCN)NC(=O)[C@@H](Cc2c[nH]c3ccccc23)NC(=O)[C@H](Cc2ccccc2)NC(=O)[C@@H](NC(=O)[C@H](N)Cc2ccccc2)CSSC[C@@H](C(=O)N[C@H](CO)[C@@H](C)O)NC1=O [Peptide 2, D-Phe-Cys-Phe-D-Trp-Lys-Thr-Cys-L-threoninol] | – | 13.4 | – | did not significantly change | did not significantly change | did not significantly change | 44% | 59.5 | 2.9% | 8 | did not reduce | 100% | – | 24 |

From patent US20100273701A1, “USE OF SALUSIN BETA ALONE OR IN COMBINATION WITH OCTREOTIDE AS A THERAPEUTIC AGENT” (priority 2007, published 2010)
